Here are results for one compound from US20140243401A1, “METHODS OF SCREENING COMPOUNDS THAT ARE CYTOTOXIC TO TUMOR CELLS AND METHODS OF TREATING TUMOR CELLS USING SUCH COMPOUND” (The Johns Hopkins University, priority 2010, published 2014).

The target of one series is T1, Type I cytosolic FAS (Homo sapiens, UniProt P49327).
T1 construct: incorporation into lipid in MCF7 human breast cancer cell lysates; endogenous in cells; host or cells: MCF7 human breast cancer cell lysate
In words: Type I cytosolic FAS activity, [14C]malonyl-CoA incorporation into lipid in MCF7 cell lysates. The class given is biochemical. The note with it: MCF7 human breast cancer cell lysates, read-out: IC50, inhibition of Type I cytosolic FAS activity. From the text:
The invention provides for methods that involve determining and/or measuring Type I and mmFAS activity. Methods of measuring Type I FAS activity are known in the art. (See, e.g., U.S. Pat. Nos. 5,759,837 and 5,981,575, which are hereby incorporated by reference in their entirety). For example, Type I FAS activity may be measured in whole cells by monitoring the incorporation of [14C]acetate into total lipids. In cell lysates, Type I FAS activity may be measured by monitoring the incorporation of [14C] from malonyl CoA into total lipids. Alternatively, Type I FAS activity may be determined using purified enzyme with acetyl CoA and malonyl CoA as substrates by measuring incorporation of radioactivity or measuring oxidation of NADPH spectrophotometrically. To test the inhibition of Type I FAS activity, a test compound is added to the reaction mixture.

Another series addresses T2, purified rat liver FAS (Rattus norvegicus, UniProt P12785).
T2 construct: Highly purified rat FAS was obtained from starved and induced Sprague-Dawley rat livers; from tissue; host or cells: liver of starved and induced Sprague-Dawley rats
In words: purified rat Type I FAS, spectrophotometric NADPH oxidation. It is filed as biochemical. How it is done:
Highly purified rat FAS was obtained from starved and induced Sprague-Dawley rat livers by slight modification of a published procedure.xx [Abraham, S.; Smith, S. Methods Enzymol. 1975, 35B, 65-73.]. Enzyme activity was assayed spectrophotometrically by measuring the decrease in extinction at 340 nm that accompanies the oxidation of NADPH during the overall reaction. The enzyme reaction mixture contained 100 mM KH2PO4 (pH 6.6), 1 mM EDTA, 1 mM dithiothreitol (DTT), 0.10 mM acetylCoA, 0.20 mM NADPH, ˜3 μg FAS and escalating concentrations of inhibitor to be tested were combined in a final volume of 1 mL and assayed at 37° C. for 5 min to monitor malonylCoA-independent oxidation of NADPH. FAS activity was then initiated by addition of 0.2 mM malonyl-CoA.

The subject of a further series is MCF7 cells. In words: JC-1 staining, mitochondrial membrane potential in MCF7 cells. The class given is cell-based, human. From the text: (§1) JC-1 staining is an indicator of mitochondrial membrane potential; with this assay, mitochondria within cells stained with this fluorescent dye emit a wavelength in the red spectrum when mitochondrial membrane potential is intact. When mitochondria are depolarized, the wavelength of the spectrum emitted changes to green. Therefore, the ratio of red/green fluorescence will give an indication of the intactness of the membrane potential of mitochondria, and thus mitochondrial function.
MCF7 cells were cultured in 24-well plates at 1×10^4 per well and incubated overnight. Following drug inhibition the medium was removed and 1 μg/ml JC-1 (Molecular Probes) in DPBS was added to the cells. Plates were incubated for 30 min at 37° C., and washed two times with DPBS. Fluorescence from each well was measured at 530 nm/590 nm (excitation/emission) and by 485 nm/535 nm (excitation/emission) separately using PerkinElmer Victor 1420. The ratio of red to green fluorescence is a measure of mitochondrial membrane potential and thus mitochondrial function directly.
Mitochondrial membrane polarization was monitored using the procedure described above. Cells were cultured in 24-well plates at 1×10^4 per well and incubated overnight. […] Fluorescence from each well was measured at 530 nm/590 nm (excitation/emission) and by 485 nm/535 nm (excitation/emission) separately using PerkinElmer Victor 1420.

Series [1] relates to SKOV3 human ovarian cancer cells. The series can be described thus: JC-1 staining, mitochondrial membrane potential in SKOV3 cells. The class given is cell-based. As to conditions: SKOV3, drug in DMSO applied 30 min prior to staining.
Text: as §1
The left panels show granular red-staining indicating mitochondria with intact membrane potential is brightest in control, and decreases with increasing concentrations of C31. Conversely, the right panels show the diffuse cytoplasmic green-staining which indicates mitochondrial depolarization, is dimmest in control and brightest at the highest concentration of C31 tested. Drug was solubilized in DMSO and applied for 30 min prior to staining.

In series [2] the test system is Human (non-small cell) lung cancer cell lines. In words: XTT cytotoxicity assay, human non-small cell lung cancer cell lines. The note with it: 4 human non-small cell lung cancer cell lines, read-out: LC50 (the source's name). The class given is cell-based. The protocol: Cytotoxicity can be easily measured using XTT assays, which provide an indication of mitochondrial activity. The XTT assay is a non-radioactive alternative for the [^51Cr] release cytotoxicity assay. XTT is a tetrazolium salt that is reduced to a formazan dye only by metabolically active, viable cells. The reduction of XTT is measured spectrophotometrically as OD490-OD650. Thus, cells that are actively metabolizing will form reaction product when subjected to XTT measurement.
For this experiment, cells were cultured under standard culture conditions. MCF7 human breast cancer cells were cultured in DMEM containing 5 mM glucose medium with 10% fetal calf serum, 0.01 mg/ml insulin and 1% penicillin/streptomycin. To measure the cytotoxicity of specific compounds against cancer cells, 9×10^3 MCF7 cells were plated per well in 96-well plates. Following overnight culture, the compounds, dissolved in DMSO, were added to the wells in 1 μl volume at specified concentrations. Vehicle controls were run for each experiment. Each condition was run in triplicate. […] Plates were read at OD490 on a PerkinElmer Victor 1420. […]
Using the XTT assay, LC50 values for C31 were determined for numerous human cancer cell lines and human hepatocytes, as shown in the following table: […]

Series [3] in a line: alamarBlue assay, primary human hepatocytes. The note with it: read-out: LC50 (the source's name). The class given is cell-based.

Values after ≈ are worked out from the molar mass of the structure shown. Values joined by “and” are separate entries in the source; they are usually repeats but may differ in a detail not shown here. Identical values can stand only once. Like-named read-outs stand apart in the source and are kept apart here.

T2 sequence (P12785 whole entry): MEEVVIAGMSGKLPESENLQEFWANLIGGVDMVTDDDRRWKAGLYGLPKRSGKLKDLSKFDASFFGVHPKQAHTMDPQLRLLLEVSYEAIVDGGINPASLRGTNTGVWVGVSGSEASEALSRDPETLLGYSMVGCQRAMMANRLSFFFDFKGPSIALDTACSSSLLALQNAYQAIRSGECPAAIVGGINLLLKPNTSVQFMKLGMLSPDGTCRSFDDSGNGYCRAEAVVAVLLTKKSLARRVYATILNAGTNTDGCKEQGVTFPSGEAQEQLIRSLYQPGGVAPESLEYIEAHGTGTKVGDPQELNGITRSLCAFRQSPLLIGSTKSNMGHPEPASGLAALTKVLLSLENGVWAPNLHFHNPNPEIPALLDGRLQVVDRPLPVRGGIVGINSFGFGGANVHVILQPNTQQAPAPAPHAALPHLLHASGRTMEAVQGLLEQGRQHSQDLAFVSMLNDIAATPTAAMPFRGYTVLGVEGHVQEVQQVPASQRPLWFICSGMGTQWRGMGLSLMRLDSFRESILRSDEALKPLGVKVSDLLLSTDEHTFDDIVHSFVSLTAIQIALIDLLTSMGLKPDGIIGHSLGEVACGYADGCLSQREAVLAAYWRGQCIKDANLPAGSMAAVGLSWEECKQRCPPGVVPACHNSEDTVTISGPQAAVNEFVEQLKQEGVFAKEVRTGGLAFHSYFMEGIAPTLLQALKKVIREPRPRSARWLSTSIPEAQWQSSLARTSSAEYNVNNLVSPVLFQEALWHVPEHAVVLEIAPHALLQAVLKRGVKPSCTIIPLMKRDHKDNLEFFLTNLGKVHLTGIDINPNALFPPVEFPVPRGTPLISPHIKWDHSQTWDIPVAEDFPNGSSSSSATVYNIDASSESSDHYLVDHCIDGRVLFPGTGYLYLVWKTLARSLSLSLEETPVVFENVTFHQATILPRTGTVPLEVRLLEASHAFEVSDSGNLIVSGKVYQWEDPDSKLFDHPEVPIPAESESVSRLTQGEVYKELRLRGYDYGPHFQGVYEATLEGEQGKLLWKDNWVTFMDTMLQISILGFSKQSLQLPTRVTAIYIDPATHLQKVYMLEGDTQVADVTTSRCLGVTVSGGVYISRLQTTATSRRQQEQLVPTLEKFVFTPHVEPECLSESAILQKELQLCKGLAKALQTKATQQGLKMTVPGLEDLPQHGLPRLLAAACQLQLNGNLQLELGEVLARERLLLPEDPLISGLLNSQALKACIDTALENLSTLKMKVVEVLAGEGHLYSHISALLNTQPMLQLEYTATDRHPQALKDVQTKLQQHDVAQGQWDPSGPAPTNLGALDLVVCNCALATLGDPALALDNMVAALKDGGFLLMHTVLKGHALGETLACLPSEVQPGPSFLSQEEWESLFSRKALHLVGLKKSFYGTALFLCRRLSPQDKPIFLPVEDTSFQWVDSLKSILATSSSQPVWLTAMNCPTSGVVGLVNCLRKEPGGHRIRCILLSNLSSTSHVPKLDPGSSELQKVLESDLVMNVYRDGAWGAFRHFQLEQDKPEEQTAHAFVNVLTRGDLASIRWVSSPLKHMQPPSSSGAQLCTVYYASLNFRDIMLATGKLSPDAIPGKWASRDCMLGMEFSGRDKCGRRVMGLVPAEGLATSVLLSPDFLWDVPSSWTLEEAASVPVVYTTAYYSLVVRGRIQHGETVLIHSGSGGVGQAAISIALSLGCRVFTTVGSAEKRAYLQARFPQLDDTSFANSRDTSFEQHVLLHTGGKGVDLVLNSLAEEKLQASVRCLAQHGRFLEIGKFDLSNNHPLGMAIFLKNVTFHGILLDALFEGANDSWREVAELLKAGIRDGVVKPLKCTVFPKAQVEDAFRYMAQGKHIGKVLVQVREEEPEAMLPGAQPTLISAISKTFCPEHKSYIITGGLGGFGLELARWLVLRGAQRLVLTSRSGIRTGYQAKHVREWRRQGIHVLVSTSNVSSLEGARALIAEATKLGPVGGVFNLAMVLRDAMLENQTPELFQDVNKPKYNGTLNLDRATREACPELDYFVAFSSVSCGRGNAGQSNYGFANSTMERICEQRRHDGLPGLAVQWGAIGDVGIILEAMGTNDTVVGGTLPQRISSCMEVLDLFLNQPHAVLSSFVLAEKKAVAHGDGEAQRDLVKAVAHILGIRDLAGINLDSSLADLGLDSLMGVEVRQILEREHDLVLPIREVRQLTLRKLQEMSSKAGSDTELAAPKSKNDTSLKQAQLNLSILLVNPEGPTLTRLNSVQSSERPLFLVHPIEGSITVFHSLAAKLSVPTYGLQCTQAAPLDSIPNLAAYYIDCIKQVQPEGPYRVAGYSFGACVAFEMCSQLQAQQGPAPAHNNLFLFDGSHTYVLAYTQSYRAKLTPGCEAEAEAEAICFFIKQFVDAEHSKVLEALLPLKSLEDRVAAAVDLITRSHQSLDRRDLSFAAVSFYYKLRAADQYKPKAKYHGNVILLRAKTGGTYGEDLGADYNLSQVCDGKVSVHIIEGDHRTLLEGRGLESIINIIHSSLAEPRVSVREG
T1 sequence (P49327 whole entry): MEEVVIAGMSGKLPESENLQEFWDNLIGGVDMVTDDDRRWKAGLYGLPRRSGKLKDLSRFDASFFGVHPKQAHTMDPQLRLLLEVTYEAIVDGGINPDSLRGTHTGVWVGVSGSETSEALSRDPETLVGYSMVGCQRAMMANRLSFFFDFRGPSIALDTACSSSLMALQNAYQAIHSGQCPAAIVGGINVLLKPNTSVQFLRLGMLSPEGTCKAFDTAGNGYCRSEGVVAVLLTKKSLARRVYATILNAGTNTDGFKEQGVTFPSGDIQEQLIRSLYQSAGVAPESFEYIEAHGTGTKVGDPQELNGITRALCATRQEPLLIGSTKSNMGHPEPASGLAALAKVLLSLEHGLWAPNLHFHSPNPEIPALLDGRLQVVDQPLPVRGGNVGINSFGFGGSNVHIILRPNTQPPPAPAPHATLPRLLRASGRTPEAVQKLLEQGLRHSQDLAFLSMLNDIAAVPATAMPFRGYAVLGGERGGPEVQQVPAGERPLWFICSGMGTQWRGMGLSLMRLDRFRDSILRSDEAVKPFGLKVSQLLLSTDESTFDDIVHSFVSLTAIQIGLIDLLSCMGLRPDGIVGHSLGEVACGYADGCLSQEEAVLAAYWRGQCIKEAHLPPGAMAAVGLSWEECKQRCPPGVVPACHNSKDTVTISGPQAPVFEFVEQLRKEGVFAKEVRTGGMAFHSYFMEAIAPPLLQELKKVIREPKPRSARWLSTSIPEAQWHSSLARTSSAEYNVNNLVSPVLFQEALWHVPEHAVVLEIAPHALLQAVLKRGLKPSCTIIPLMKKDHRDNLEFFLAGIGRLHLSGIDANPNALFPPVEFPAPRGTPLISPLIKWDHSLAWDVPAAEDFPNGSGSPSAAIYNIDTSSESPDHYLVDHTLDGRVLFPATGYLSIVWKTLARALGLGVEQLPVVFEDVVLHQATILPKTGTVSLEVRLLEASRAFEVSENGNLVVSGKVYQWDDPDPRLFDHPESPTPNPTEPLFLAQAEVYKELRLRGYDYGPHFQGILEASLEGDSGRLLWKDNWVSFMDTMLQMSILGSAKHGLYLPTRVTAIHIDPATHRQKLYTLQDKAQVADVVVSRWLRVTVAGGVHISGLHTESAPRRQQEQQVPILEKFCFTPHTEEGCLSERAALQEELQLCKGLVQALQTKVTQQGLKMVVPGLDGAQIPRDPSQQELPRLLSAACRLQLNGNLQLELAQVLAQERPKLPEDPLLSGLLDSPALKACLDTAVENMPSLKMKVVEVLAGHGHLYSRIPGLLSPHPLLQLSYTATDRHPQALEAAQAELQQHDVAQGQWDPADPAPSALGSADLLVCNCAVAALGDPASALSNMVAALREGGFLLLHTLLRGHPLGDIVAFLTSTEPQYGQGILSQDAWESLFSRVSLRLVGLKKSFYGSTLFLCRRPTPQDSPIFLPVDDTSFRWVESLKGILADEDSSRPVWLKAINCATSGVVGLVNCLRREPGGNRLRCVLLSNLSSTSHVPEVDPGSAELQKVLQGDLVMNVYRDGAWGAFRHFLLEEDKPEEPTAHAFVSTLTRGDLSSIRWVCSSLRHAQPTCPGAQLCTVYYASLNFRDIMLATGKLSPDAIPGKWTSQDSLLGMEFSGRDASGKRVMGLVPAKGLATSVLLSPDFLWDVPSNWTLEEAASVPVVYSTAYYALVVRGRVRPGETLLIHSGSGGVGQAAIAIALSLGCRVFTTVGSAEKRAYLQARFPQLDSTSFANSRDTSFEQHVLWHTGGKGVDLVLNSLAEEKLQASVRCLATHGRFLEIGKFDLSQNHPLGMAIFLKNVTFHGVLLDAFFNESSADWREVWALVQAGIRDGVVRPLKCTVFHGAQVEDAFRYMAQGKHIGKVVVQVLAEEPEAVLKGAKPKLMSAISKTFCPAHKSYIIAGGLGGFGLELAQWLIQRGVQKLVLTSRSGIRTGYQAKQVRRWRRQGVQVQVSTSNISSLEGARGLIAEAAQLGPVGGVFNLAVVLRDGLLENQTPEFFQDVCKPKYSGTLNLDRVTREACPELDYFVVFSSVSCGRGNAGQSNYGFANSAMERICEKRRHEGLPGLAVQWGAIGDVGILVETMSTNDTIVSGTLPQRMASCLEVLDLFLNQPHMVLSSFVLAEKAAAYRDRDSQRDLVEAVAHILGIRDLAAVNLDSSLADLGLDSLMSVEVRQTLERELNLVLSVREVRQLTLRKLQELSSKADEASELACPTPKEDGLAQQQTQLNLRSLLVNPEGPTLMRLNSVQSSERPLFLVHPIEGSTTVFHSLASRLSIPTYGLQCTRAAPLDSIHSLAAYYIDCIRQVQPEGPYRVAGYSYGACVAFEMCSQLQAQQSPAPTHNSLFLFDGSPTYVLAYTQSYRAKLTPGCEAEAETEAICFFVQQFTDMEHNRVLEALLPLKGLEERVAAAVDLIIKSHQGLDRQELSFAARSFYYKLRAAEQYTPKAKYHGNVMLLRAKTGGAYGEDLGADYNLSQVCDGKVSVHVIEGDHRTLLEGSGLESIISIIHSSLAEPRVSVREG

Take `CCCCCCCCC1(C)SC(=O)C=C1OCC(=O)Nc1ccc(Cl)cc1` (centres unmarked) [Compound C31]: the IC50 on Type I cytosolic FAS is 17.8 µM; against purified rat liver FAS, 42 µM; at purified rat liver FAS (approximate) it was approximately 41 µM. Also, the “mitochondrial membrane potential (JC-1 staining)” value in the series with MCF7 cells (MCF7, standard conditions, FIGS. 6, 7) is “rapid and profound effect on altering mitochondrial membrane potential”. In addition, in the series with MCF7 cells (MCF7, varying glucose and oxygen, FIG. 11), the “mitochondrial membrane polarization (JC-1 staining)” value was “reductions in mitochondrial membrane polarization”. The “mitochondrial depolarization (JC-1 staining)” value in series [1] is listed as “depolarization of the mitochondria in the SKOV3 human ovarian cancer cells which is dose-dependent”. Further, the CC50 in series [2] is 4 to 8 µg/mL (≈ 9.76 to 19.5 µM); in series [3], 225 µg/mL and 562 µM.
